The test system of one test is WNT pathway genes. Nature of the test: Human WNT Signaling Pathway RT2 Profiler PCR Array in primary cells. It is filed as cell-based. The conditions noted are these: 48 h, compared with ICG001. The protocol:
On-target activity of each peptide was assessed by the transcriptional activity of WNT pathway genes using Qiagen's Human WNT Signaling Pathway RT^2 Profiler PCR Array). Primary cells were administered the therapeutic peptide corresponding to SEQ ID NO: 42 for 48 h. RNA was extracted from the harvested cells and profiled on the array using rtPCR. The array contains 84 genes related to Wnt-mediated signal transduction, including ligands, receptors, downstream signaling molecules, and regulators of the Wnt canonical pathway, two non-canonical pathways, planar cell polarity, and a calcium ion-dependent pathway, 38 of which were assessed here. Positive control of ICG001, a known Wnt inhibitor, was also run on the RNA array to be used as a comparison.

For test [1], the target named is T1, β-catenin and E-Cadherin interaction (Homo sapiens, UniProt P35222).
T1 sequence (P35222 1-781): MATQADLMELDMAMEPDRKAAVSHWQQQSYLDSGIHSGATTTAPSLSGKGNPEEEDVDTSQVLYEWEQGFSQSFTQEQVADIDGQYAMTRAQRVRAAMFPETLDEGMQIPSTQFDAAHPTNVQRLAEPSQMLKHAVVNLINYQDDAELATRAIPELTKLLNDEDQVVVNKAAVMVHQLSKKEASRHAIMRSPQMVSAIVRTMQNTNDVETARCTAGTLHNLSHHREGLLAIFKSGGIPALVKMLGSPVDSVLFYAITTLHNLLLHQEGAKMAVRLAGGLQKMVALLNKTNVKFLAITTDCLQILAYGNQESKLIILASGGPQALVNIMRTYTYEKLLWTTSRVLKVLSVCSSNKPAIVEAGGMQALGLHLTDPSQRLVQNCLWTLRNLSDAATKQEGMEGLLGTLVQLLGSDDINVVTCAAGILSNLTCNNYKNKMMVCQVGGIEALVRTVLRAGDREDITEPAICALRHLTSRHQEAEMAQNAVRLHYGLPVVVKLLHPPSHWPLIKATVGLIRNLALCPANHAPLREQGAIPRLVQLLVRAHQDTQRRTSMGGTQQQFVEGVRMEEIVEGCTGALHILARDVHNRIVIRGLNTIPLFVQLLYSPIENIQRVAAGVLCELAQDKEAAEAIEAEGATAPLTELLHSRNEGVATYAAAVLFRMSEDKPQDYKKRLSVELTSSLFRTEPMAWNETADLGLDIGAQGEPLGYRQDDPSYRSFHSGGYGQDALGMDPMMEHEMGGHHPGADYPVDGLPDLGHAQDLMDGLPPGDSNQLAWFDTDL
Nature of the test: Competitive binding assay β-catenin / E-Cadherin-FC fusion. The settings on record: immobilized biotinylated β-catenin, 50 nM E-Cadherin-FC fusion, varying amounts of peptide. As for the experimental part:
Competitive binding assays were performed (FIG. 3) wherein biotinylated β-catenin was immobilized on streptavidin plates and 50 nM E-Cadherin-FC fusion was added in the presence of varying amounts of the peptide inhibitors (SEQ ID NO: 42).

In test [2] the target is T2, β-catenin (Homo sapiens, UniProt P35222).
T2 sequence (P35222 1-781): T1 sequence (P35222 1-781)
In words: KD50 measurement using competitive fluorescence polarization (FP) with labelled TCF4. Type of test: binding. The conditions noted are these: fluorescence polarization, β-catenin; listed as 2. The method, boiled down:
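Labelled TCF4 (5 nM) mixed with 100 nM β-catenin at room temperature; inhibitor added as serial dilutions from 10 nM to 30 uM. Polarization read at excitation 470 nm/emission 520 nm; binding displacement lowers polarization. Three independent runs.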

In a further test the test system is EMS lesions. The settings on record: 5 mg/kg IP daily for three weeks, versus vehicle.
The target of test [3] is T3, β-catenin (Mus musculus, UniProt Q02248).
T3 construct: from tissue; host or cells: endometriosis lesions of the mouse model
T3 sequence (Q02248 1-781): T1 sequence (P35222 1-781) with P706A
Nature of the test: Immunohistochemistry of β-catenin localization in lesions, area thresholding. It is filed as in vivo. The conditions noted are these: IP daily for 3 weeks. The protocol:
Endometriosis was established in a mouse model of disease. Mice were allowed to establish endometriosis for 3 weeks. After the first 3 weeks, mice were then intraperitoneally treated daily for 3 weeks with the therapeutic peptides corresponding to SEQ ID NOs: 215 or 393 or untreated negative control. To assess the localization of the peptides and β-catenin, lesions from the endometriosis mouse model were assessed. On the last day of treatment, in order to visualize the peptide localization to the lesion(s), mice were dosed with a biotinylated tagged peptide therapeutic or control. Mice were euthanized, lesions were removed, and fixed in formalin for histology and immunohistochemistry. Fixed and sectioned lesions were incubated with antibodies specific for β-catenin (Cell Signaling, 1:100, Secondary: Fisher Scientific, Goat anti-Rabbit-647 1:200), streptavidin for biotinylated-therapeutic (Fisher Scientific, SA-405 1:100), and Sytox green for nucleus (Fisher Scientific, 1:300). Immunohistochemical negative controls were performed on lesion sections from all treatment groups using IgG non-specific antibodies (Rabbit-IgG, AbCam 1:100).
Quantification of β-catenin localization was performed using the Zeiss Blue Software via thresholding. Thresholding allows the software to calculate the area of staining using pixel intensity; therefore, a quantitative number for staining can be extrapolated for the different cellular compartments (See Table 6).

The source of these data is US12441768B2, “Compositions and methods for treating endometriosis” (EndoMet Biosciences, Inc., priority 2018, dated 2025).

Positions count from the first letter of the chain named. Values joined by “and” are separate entries in the source; they are usually repeats but may differ in a detail not shown here. Equal values may be shown once. “Also recorded” adds a separate entry of the source. Where a SMILES comes first, the peptide text is derived from it.

Text for EMS lesions: Lesions were established in an EMS mouse model of endometriosis by intraperitoneal injection of minced GFP+ uterine tissue from a mouse into wild-type c57/b16 mice. […] Endometrial disease was established in the mice and allowed to progress for three weeks prior to the initiation of therapy.

For `CC[C@H](C)[C@H](NC(=O)[C@H](CC(C)C)NC(=O)[C@H](Cc1ccccc1)NC(=O)[C@H](Cc1c[nH]c2ccccc12)NC(=O)[C@@H](N)CCSC)C(=O)N[C@@H](CS)C(=O)N[C@@H](Cc1ccccc1)C(=O)N[C@@H](Cc1c[nH]c2ccccc12)C(=O)NCC(=O)O` [SEQ ID NO: 42] (H-MWFLICFWG-OH), the “Inhibition of gene transcripts within the Wnt pathway” value with WNT pathway genes was “outperformed the known positive control; also recorded: potent and specific Wnt inhibitor”. Also, the “Inhibition of the β-catenin and E-Cadherin interaction” value in test [1] is “None of the doses tested inhibited”.

`CCCC[C@@H]1NC(=O)[C@@H](NC(C)=O)CCCCNC(=O)C[C@@H](C(=O)O)NC(=O)[C@H](Cc2c[nH]c3ccccc23)NC(=O)[C@H](C)NC(=O)[C@H](CC)NC(=O)[C@H]([C@@H](C)CC)NC(=O)[C@H](CC(C)C)NC(=O)[C@H](CC2CCCCC2)NC(=O)[C@H](Cc2c[nH]c3ccccc23)NC1=O` [SEQ ID NO: 215, Cyclo-Ac-K*Nle-W-Cha-LI-Abu-AWD*-COOH] (HELM PEPTIDE1{[ac].K.[Nle].W.[Cha].L.I.[Abu].A.W.D}$PEPTIDE1,PEPTIDE1,2:R3-11:R3$$$V2.0): the “β-Cat FP Hill slope” value at β-catenin [2] came to 0.82. For the same molecule, in the test on EMS lesions, the Activated macrophages entry is reported as “relative increase”; the “Relative numbers of activated macrophages, foam cells, polymorphonuclear neutrophils, B cells and T cells at the site of lesions (histology)” value is recorded as “increase in the relative numbers”. Moreover, on β-catenin [3] (average of lesion samples), the “% membrane bound β-catenin (staining area threshold), Average” value worked out at 46.4% and the “% nuclear β-catenin (staining area threshold), Average” value worked out at 1.0%. The “% nuclear β-catenin (staining area threshold)” value at β-catenin [3] (single lesion sample, listed as Peptide 2) was 0.8% and 1.2% and 1.1%.
